Experimental data reported in patent US8604206B2, “Compositions for preventing and/or treating degenerative disorders of the central nervous system” (Amicus Therapeutics, Inc., priority 2009, dated 2013).

What was measured:
lysosomal GCase = lysosomal GCase (Homo sapiens (Human), UniProt P04062); test: In situ lysosomal GCase inhibition and washout assay in fibroblasts from a normal subject; assay type: cell-based
Procedure: The effect of the novel compounds of the present invention on lysosomal GCase activity was assayed in situ using fibroblasts established from a normal subject. Cells seeded in 48-well plates were incubated with the indicated concentrations of compound for 16-24 hours. For the dose-response assays, cells were incubated with the in situ substrate 5-(pentafluorobenzoylamino)fluorescein di-β-D-glucopyranoside (PFBFDβGlu) for 1 hour and subsequently lysed to determine the extent of substrate hydrolysis in the presence of compound. […] Inhibition was determined as the ratio of activity in the presence of compound to that in the absence of compound. […] Cells were washed extensively and incubated in drug-free medium to allow net compound efflux from cells. Cells were then tested for lysosomal GCase activity at 2 hour intervals over a total period of 8 hours following compound removal. The increase in activity over time was fitted with a single exponential function to determine the compound's washout time.

GCase [1] = biological target: GCase (Mus musculus, UniProt P17439); test: GCase enhancement in tissues of orally dosed mice; assay type: in vivo; conditions: 9 doses over 2 weeks
Sequence of GCase (Mus musculus, UniProt P17439) (P17439 20-515 limits assumed): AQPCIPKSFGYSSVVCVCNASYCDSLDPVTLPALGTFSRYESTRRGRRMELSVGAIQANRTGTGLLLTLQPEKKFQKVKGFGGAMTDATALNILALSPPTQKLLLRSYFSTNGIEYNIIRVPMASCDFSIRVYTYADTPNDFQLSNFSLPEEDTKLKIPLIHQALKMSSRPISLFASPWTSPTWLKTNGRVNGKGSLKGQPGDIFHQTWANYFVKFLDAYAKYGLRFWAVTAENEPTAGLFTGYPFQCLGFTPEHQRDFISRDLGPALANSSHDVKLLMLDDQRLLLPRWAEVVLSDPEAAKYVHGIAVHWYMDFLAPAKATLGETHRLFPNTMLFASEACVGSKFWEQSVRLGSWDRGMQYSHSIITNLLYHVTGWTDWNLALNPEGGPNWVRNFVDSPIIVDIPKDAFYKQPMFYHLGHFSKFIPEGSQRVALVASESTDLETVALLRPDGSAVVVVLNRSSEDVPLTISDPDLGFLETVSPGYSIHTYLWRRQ
Procedure: The ability of orally administered test compounds ((3R,4R,5S)-5-(difluoromethyl)piperidine-3,4-diol, (3R,4R,5S)-5-(1-fluoroethyl)piperidine-3,4-diol, (3R,4R,5S)-5-((R)-1-fluoropropyl)piperidine-3,4-diol hydrochloride, or (3R,4R,5S)-5-benzylpiperidine-3,4-diol) to elevate GCase levels was assessed in mice. For this purpose, 8-week old wild-type male mice (C57BL/6) were administered a […] p.o. (gavage) dose of a compound of the present invention (i.e., (3R,4R,5S)-5-(difluoromethyl)piperidine-3,4-diol, (3R,4R,5S)-5-(1-fluoroethyl)piperidine-3,4-diol, (3R,4R,5S)-5-((R)-1-fluoropropyl)piperidine-3,4-diol hydrochloride, or (3R,4R,5S)-5-benzylpiperidine-3,4-diol). The dosing solutions were prepared in water. Compounds were administered over 2 weeks as follows: week 1, Mon-Fri (On), Sat-Sun (Off); week 2, Mon-Thu (On); necropsy on Friday. Thus, a total of 9 doses (dosing solutions prepared fresh every day) were given to each mouse, with a 24-hour washout between the last dose and necropsy.
Plasma was collected by spinning blood at 2700 g for 10 minutes at 4° C. Liver, spleen, lung, and brain tissues were removed, washed in cold PBS, blotted dry, flash frozen on dry ice, and stored at −80° C. until analysis. GCase levels were measured by homogenizing approximately 50 mg tissue in 500 μL McIlvane (MI) buffer (100 mM sodium citrate, 200 mM sodium phosphate dibasic, 0.25% sodium taurocholate, and 0.1% Triton X-100, pH 5.2) at pH 5.2 for 3-5 seconds on ice with a micro homogenizer. Homogenates were then incubated at room temperature without and with 2.5 mM conduritol-B-epoxide (CBE) for 30 min. Finally, 3.7 mM 4-methylumbeliferryl-β-glucoside (4-MUG) substrate was added and incubated at 37° C. for 60 min. […] Fluorescence was measured on a plate reader for 1 sec/well using 355 nm excitation and 460 nm emission. Total protein was determined in lysates using the MicroBCA kit according to the manufacturer's instructions. A 4-methylumbelliferone (4-MU) standard curve ranging from 1.0 nM to 50 μM was run in parallel for conversion of raw fluorescence data to absolute GCase activity (in the presence and absence of CBE) and expressed as nanomoles of 4-MU released per milligram of protein per hour (nmol/mg protein/hr). GCase levels and protein levels were calculated using Microsoft Excel (Redmond, Wash.) and GraphPad Prism version 4.02.

Rat pharmacokinetics = assay type: in vivo; conditions: listed as (3R,4R,5S)-5-(1-fluoroethyl)piperidine-3,4-diol-HCl
Procedure: Pharmacokinetic (PK) data was obtained in rats to assess the bioavailability of test compound. In particular, the following PK parameters were calculated: bioavailability as measured by area under the Concentration/Time curve (AUC), fraction of dose available (% F; further defined below), clearance (CL), volume of distribution (Vd), and half-life (t½). […] Three rats were used per dosing group. Blood was collected over a 24-hr period. The time points for blood collection after intravenous administration were: 0, 2.5, 5, 10, 15, 30, 45 min, 1, 2, 4, 8, 12, and 24 hrs; time points for blood collection after p.o. administrations were: 0, 5, 15, 30, 45 min, 1, 2, 3, 4, 8, 12, and 24 hrs. Plasma samples were analyzed for compound levels by LC-MS/MS at PPD. Raw data was analyzed by non-compartmental analysis in Win-nonLin to calculate VD, % F, CL, and t1/2.

GCase [2] = biological target: GCase (Homo sapiens (Human), UniProt P04062); test: GCase activity enhancement (EC50, Emax) of Table 2B; assay type: cell-based; conditions: compared to reference compound IFG-tartrate
Sequence of GCase (Homo sapiens (Human), UniProt P04062) (P04062 40-536): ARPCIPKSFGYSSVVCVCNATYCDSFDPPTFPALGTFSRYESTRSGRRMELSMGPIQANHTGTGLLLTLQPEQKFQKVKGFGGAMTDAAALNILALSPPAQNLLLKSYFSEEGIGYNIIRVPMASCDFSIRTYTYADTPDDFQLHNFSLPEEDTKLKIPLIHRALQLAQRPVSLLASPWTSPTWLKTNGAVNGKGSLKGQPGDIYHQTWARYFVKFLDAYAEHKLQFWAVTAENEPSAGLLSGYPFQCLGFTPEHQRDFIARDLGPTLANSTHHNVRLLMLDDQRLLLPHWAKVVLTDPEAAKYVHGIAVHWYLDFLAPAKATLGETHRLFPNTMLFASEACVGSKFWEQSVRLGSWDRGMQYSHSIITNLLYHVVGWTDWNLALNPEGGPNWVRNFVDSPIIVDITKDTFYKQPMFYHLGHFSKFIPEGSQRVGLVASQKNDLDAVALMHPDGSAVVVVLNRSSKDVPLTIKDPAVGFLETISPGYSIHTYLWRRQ

[3] = Blood brain barrier penetration, plasma and brain levels after oral administration; assay type: in vivo, mouse; conditions: mice, single 30 mg/kg (free base equivalent) p.o.
Procedure: For this purpose, 8-week old wild-type male mice (C57BL/6) were administered a single 30 mg/kg (free base equivalent) p.o. dose of reference or test compound by gavage (n=3 mice per time point). Dosing solutions were prepared in water. After dosing, mice were euthanized with CO2 at the following time points: 0-, 0.5-, 1-, and 4-hour post-dose. […] Similarly, brains were collected from each mouse. Plasma was derived by spinning whole blood at 2,700×g for 10 minutes at 4° C. followed by storage on dry ice. Whole brains were washed in cold PBS to remove contaminating blood, blotted dry, flash frozen on dry ice, and ultimately stored at −80° C. until analysis. To prepare brain samples for analysis, 50-100 mg of tissue was homogenized in […] of water/mg tissue. Samples were then clarified by centrifugation. Next, 25 μl of the brain homogenate supernatant or 25 μl of plasma were combined with 25 μl of acetonitrile:water (95/5). […] Samples were again clarified by centrifugation and 75 μl of the supernatant was combined with 75 μl of acetonitrile. Samples were then analyzed for compound levels by LC-MS/MS at PPD Inc. (3230 Deming Way, Middleton, Wis. 53562). In brief, a Thermo Betasil, Silica-100, 50×3 mm, 5μ column equilibrated with a mixture of mobile phase consisting of 5 mM ammonium formate and 0.05% formic acid in (A) 95:5 acetonitrile:water or (B) 70:20:10 methanol:water:acetonitrile was employed. Between 20 and 30 μl sample was injected for analysis. For calculating drug concentrations, raw data for plasma (ng/mL) and brain (ng/g) was converted to nM using the molecular weight of respective compounds and assuming 1 g of tissue is equivalent to 1 mL volume. Concentration as a function of time was plotted in GraphPad Prism version 4.02.

Sequence of lysosomal GCase (P04062 40-536): as above

What does the source list for CC(F)[C@H]1CNC[C@@H](O)[C@@H]1O (single isomer, unassigned)?
inhibition of GCase activity (lysosomal GCase): inhibited GCase activity; in situ washout from the lysosomal compartment compared to IFG-tartrate (lysosomal GCase; compared to reference compound IFG-tartrate): considerably faster than reference compound IFG-tartrate; GCase increase (fold) (GCase [1]; brain, 10 mg/kg FBE p.o., 24-hour washout): 1.5 fold; GCase enhancement in brain and spleen (GCase [1]; mice, p.o.): significant GCase enhancement in brain and spleen; AUClast (hr*ng/ml), AUC0-24 hr (Rat pharmacokinetics; IV, 3 mg/kg free base): 1370 ± 109 ng·h/mL; CL (Rat pharmacokinetics; IV, 3 mg/kg free base): 36.47 ± 2.88 mL/min/kg; Cmax (Rat pharmacokinetics; IV, 3 mg/kg free base): 2427 ± 192 ng/mL; VD (Rat pharmacokinetics; IV, 3 mg/kg free base): 6.304 ± 0.927 L/kg; t1/2 (Rat pharmacokinetics; IV, 3 mg/kg free base): 2.06 ± 0.47 h; AUClast (hr*ng/ml), AUC0-24 hr (Rat pharmacokinetics; PO, 10 mg/kg free base): 4251 ± 88 ng·h/mL; t1/2 (Rat pharmacokinetics; PO, 10 mg/kg free base): 3.0 ± 0.22 h; AUClast (hr*ng/ml), AUC0-24 hr (Rat pharmacokinetics; PO, 30 mg/kg free base): 14229 ± 127 ng·h/mL; Cmax (Rat pharmacokinetics; PO, 30 mg/kg free base): 4680 ± 369 ng/mL; AUClast (hr*ng/ml), AUC0-24 hr (Rat pharmacokinetics; PO, 100 mg/kg free base): 50946 ± 713 ng·h/mL; Cmax (Rat pharmacokinetics; PO, 100 mg/kg free base): 15733 ± 622 ng/mL; t1/2 (Rat pharmacokinetics; PO, 100 mg/kg free base): 2.4 ± 0.16 h; increase in GCase activity compared to IFG-tartrate (GCase [2]): enhanced enzyme activity to the same maximum level as reference compound IFG-tartrate at much lower concentration; blood brain barrier crossing compared to IFG-tartrate [3]: crossed the blood brain barrier more readily as compared to IFG-tartrate; levels detected in brain compared to IFG-tartrate [3]: higher levels
